This is an account of results in ChEMBL document CHEMBL1122556, “Design, synthesis, and binding characteristics of an opiate receptor mimetic peptide” (J Med Chem, 1984).

A short description of this experiment: Compound was evaluated for the binding strength to receptor Mimetic peptide (RMP) at 5 degree celsius, Ki was determined from its potency in displacing [Leu]-enkephalin binding.

Residues, ends and D or L forms follow the SMILES beside them. *: point of attachment. Desaminotyrosyl = O=C(CCc1ccc(O)cc1)*; Hydrocinnamoyl = O=C(CCc1ccccc1)*

Broadly, the Ki is a measure of affinity in units of concentration, obtained from inhibition or displacement. `CC(C)C[C@@H](NC(=O)[C@@H](Cc1ccccc1)NC(=O)CNC(=O)CNC(=O)[C@H](N)Cc1ccc(O)cc1)C(=O)O` gave a Ki of 400 µM.

Molecule `CC(C)C[C@H](NC(=O)[C@H](Cc1ccccc1)NC(=O)CNC(=O)[C@@H](N)Cc1ccc(O)cc1)C(=O)O` came in with an inhibition constant Ki of 160 µM.

Molecule `C=CCN1CC[C@]23c4c5ccc(O)c4O[C@H]2C(=O)CC[C@@]3(O)[C@H]1C5` [NALOXONE] registered a Ki of 7460 µM.

Turning to `CC(C)C[C@H](NC(=O)[C@H](Cc1ccccc1)NC(=O)CNC(=O)CNC(=O)CCc1ccccc1)C(=O)O` (Hydrocinnamoyl-GGFL-OH), the inhibitory constant (Ki) was 620 µM.

The molecule `CC(C)C[C@H](NC(=O)[C@H](Cc1ccccc1)NC(=O)CNC(=O)CNC(=O)CCc1ccc(O)cc1)C(=O)O` (Desaminotyrosyl-GGFL-OH) showed an inhibition constant Ki of 205 µM.

For the molecule `CC(C)C[C@H](NC(=O)[C@H](Cc1ccccc1)NC(=O)CNC(=O)CNC(=O)[C@H](N)Cc1ccccc1)C(=O)O`, the affinity corresponds to a Ki of 95.5 µM.

As for `N=C(N)NCCC[C@H](NC(=O)[C@H](Cc1ccccc1)NC(=O)[C@@H](N)Cc1cnc[nH]1)C(=O)N[C@@H](Cc1c[nH]c2ccccc12)C(=O)O`, the affinity corresponds to a Ki of 5950 µM.

For the molecule `CSCC[C@H](NC(=O)[C@H](Cc1ccccc1)NC(=O)CNC(=O)CNC(=O)[C@@H](N)Cc1ccc(O)cc1)C(=O)O`, the Ki amounted to 49.5 µM.
